Experimental data: BindingDB's records for patent US12466821 (Novartis, 2025)

Target: T1, DNA polymerase catalytic subunit (Human herpesvirus 1 (strain 17), UniProt P04293)
T1 sequence (P04293 whole entry): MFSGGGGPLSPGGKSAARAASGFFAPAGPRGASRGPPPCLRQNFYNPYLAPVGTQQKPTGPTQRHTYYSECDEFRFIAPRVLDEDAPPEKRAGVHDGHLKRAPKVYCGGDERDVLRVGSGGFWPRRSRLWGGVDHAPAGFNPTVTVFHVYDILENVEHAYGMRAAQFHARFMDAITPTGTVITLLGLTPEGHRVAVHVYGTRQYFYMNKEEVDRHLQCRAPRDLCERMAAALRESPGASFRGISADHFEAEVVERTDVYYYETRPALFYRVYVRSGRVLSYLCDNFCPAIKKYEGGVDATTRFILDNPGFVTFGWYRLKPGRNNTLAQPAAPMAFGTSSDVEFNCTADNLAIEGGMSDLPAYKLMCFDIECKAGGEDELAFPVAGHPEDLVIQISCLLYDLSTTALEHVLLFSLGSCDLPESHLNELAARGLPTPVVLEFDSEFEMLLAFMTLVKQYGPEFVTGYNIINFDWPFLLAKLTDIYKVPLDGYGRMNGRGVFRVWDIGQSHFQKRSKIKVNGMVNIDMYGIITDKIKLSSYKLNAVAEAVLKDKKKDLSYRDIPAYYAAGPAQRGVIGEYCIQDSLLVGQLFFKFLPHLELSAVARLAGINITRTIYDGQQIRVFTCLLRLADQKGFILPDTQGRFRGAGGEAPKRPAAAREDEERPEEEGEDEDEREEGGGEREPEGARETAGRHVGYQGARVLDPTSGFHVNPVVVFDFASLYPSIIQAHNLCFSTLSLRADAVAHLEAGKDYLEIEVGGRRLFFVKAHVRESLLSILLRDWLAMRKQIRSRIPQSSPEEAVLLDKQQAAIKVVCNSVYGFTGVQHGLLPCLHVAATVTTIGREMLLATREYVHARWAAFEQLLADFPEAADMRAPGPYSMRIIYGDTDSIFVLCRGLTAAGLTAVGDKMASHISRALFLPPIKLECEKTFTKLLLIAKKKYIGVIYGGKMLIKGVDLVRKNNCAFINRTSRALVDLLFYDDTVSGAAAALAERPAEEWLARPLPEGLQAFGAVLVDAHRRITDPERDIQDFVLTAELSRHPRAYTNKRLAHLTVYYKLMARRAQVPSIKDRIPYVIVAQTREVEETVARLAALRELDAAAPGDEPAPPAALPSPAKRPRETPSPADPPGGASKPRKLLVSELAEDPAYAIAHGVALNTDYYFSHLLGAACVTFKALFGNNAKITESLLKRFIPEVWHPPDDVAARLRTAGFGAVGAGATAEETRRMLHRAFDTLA

Compound | IC50 [µM]
N#Cc1ccc(CNC(=O)c2ccc3n(c2=O)CCN(CC2(S(=O)(=O)CCCO)CC2)C3=O)cc1F [US12466821, Example 23] | 0.124
CS(=O)(=O)CCN1CCn2c(ccc(C(=O)NCc3ccc(Cl)cc3)c2=O)C1=O [US12466821, Example 51] | 0.789
CN(C)S(=O)(=O)C1(CN2CCn3c(ccc(C(=O)NCc4ccc(C#N)cc4)c3=O)C2=O)CC1 [US12466821, Example 90-2] | 0.0198
N#CCS(=O)(=O)C1(CN2CCn3c(ccc(C(=O)NCc4ccc(Cl)cc4)c3=O)C2=O)CC1 [US12466821, Example 108-1] | 0.116
CS(=O)(=O)CCCN1CCn2c(c(C3CC3)cc(C(=O)NCc3ccc(Cl)cc3)c2=O)C1=O [US12466821, Example 130] | 2.42
O=C(NCc1ccc(Cl)cc1)c1cc(C2CC2)c2n(c1=O)CCN(CCN1CCCS1(=O)=O)C2=O [US12466821, Example 131] | 0.311
O=C(NCc1ccc(Cl)cc1)c1cc(CC2CC2)c2n(c1=O)CCN(CCN1CCCS1(=O)=O)C2=O [US12466821, Example 133] | 0.324
CCc1cc(C(=O)NCc2ccc(Cl)cc2)c(=O)n2c1C(=O)N(CCN1CCCS1(=O)=O)CC2 [US12466821, Example 135] | 0.342
O=C(NCc1ccc(Cl)cc1)c1cc(C(F)F)c2n(c1=O)CCN(CCN1CCCS1(=O)=O)C2=O [US12466821, Example 144] | 1.11
CS(=O)(=O)CCCN1CCn2c(c(C(F)(F)F)cc(C(=O)NCc3ccc(Cl)cc3)c2=O)C1=O [US12466821, Example 146] | 14.8
Cc1cc(C(=O)NCc2ccc(Cl)cc2)c(=O)n2c1C(=O)N(CC1(N3CCCS3(=O)=O)CC1)CC2 [US12466821, Example 150] | 0.0653
Cc1cc(C(=O)NCc2ccc(Cl)cc2)c(=O)n2c1C(=O)N(CCC1(S(C)(=O)=O)CC1)CC2 [US12466821, Example 151] | 9.25
Cc1cc(C(=O)NCc2ccc(Cl)cc2)c(=O)n2c1C(=O)N(CC1(CS(C)(=O)=O)CC1)CC2 [US12466821, Example 154] | 0.283
CN(CCN1CCn2c(c(F)cc(C(=O)NCc3ccc(Cl)cc3)c2=O)C1=O)S(C)(=O)=O [US12466821, Example 160] | 2.02
CS(=O)(=O)C1(CCN2CCn3c(c(F)cc(C(=O)NCc4ccc(Cl)cc4)c3=O)C2=O)CC1 [US12466821, Example 165] | 137
CS(=O)(=O)C1(CN2CCn3c(c(F)cc(C(=O)NCc4ccc(Cl)cc4)c3=O)C2=O)CC1 [US12466821, Example 167] | 0.0718
CS(=O)(=O)CC1(CN2CCn3c(c(F)cc(C(=O)NCc4ccc(Cl)cc4)c3=O)C2=O)CC1 [US12466821, Example 168] | 0.292
CS(=O)(=O)C1(CCN2CCn3c(ccc(C(=O)NCc4ccc(Cl)cc4)c3=O)C2=O)CC1 [US12466821, Example 170] | 9.35
NC1(CN2CCn3c(ccc(C(=O)NCc4ccc(Cl)cc4)c3=O)C2=O)CC1 [US12466821, Example 197] | 3.6
CCOC(=O)C1(CN2CCn3c(ccc(C(=O)NCc4ccc(Cl)cc4)c3=O)C2=O)CC1 [US12466821, Example 207] | 2.9
O=C(NCc1ccc(Cl)cc1)c1ccc2n(c1=O)CCN(CC1(C(=O)N3CCC3)CC1)C2=O [US12466821, Example 208] | 4.53
CN(C)C(=O)C1(CN2CCn3c(ccc(C(=O)NCc4ccc(Cl)cc4)c3=O)C2=O)CC1 [US12466821, Example 209] | 1.64
O=C(NCc1ccc(Cl)cc1)c1ccc2n(c1=O)CCN(CC1(C(=O)N3CCOCC3)CC1)C2=O [US12466821, Example 211] | 4.77
